Like-named read-outs stand apart in the source and are kept apart here.
What was measured:
[1] = biological target: recombinant human BACE-1 protein (Homo sapiens (Human), UniProt P56817); test: Measurement of Inhibition of β-Secretase Activity; format: biochemical; conditions: 3 h at 30° C., pH5.0, read-out: IC50 value
Summary of the method: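 Recombinant human BACE-1 incubated with compound and Eu-cryptate-labelled biotinylated peptide substrate 3 h at 30° C in 50 mM sodium acetate pH 5.0, 0.008% Triton X-100. Streptavidin-XL665 in KF-containing phosphate buffer pH 7.0 then added, 1 h at 30° C, for time-resolved FRET read-out.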

[2] = recombinant human BACE-1 protein
[3] = fluorescence-quenched peptide substrate 18 nM, BACE-1 7.4 nM

Sequence of recombinant human BACE-1 protein (P56817 46-501): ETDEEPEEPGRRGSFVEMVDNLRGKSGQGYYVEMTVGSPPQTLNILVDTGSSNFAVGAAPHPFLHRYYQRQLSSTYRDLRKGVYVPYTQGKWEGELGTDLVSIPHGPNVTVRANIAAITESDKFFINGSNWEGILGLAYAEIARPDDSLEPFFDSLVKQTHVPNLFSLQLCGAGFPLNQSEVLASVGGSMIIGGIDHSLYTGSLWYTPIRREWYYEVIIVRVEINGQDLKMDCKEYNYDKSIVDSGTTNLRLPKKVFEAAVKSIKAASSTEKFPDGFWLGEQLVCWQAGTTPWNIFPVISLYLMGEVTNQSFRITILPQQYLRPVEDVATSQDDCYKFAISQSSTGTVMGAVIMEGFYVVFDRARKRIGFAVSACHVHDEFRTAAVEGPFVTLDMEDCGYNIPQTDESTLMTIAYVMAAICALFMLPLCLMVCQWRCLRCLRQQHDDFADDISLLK

Compound | melting point | IC50 [1, 2] [µM] | IC50 [1, 3] [µM]
CC1(c2cc(Br)cc(NC(=O)c3nc4ccccc4s3)c2)CCSC(N)=N1.Cl (stereo not shown) [Compound 570] | 186 to 187 °C | 0.149 | –
CC1(c2cc(NC(=O)c3ccc(Cl)cn3)ccc2Cl)CCSC(N)=N1.Cl (stereo not shown) [Compound 1199] | 274 to 283 °C | 0.032 | –
CO/N=C/c1cccc(C2(C)CCSC(N)=N2)c1 (stereo not shown) [Compound 804] | 135 to 136 °C | – | < 100
COc1ccc(C(=O)NCc2cccc(C3(C)CCSC(N)=N3)c2)cc1.Cl (stereo not shown) [Compound 452] | 132 to 134 °C | – | < 100
CC1(c2cc(NC(=O)c3ccc(Cl)cn3)cc(C(=O)Nc3ccccc3)c2)CCSC(N)=N1 (stereo not shown) [Compound 1217] | 263 to 266 °C | – | < 100
COCc1ccc(C(=O)Nc2cccc(C3(C)CCSC(N)=N3)c2)nc1 (stereo not shown) [Compound 128] | 159 to 163 °C | – | < 100
CC(C)c1ccc(C(=O)Nc2cccc(C3(C)CCSC(N)=N3)c2)nc1 (stereo not shown) [Compound 1005] | 191 to 193 °C | – | < 100
CC1(c2ccc(O)cc2)CCSC(N)=N1.Cl (stereo not shown) [Compound 413] | 251 to 254 °C | – | < 100
CN(C)c1cnc(C(=O)Nc2cccc(C3(C)CCSC(N)=N3)c2)cn1 (stereo not shown) [Compound 302] | 122 to 126 °C | – | < 100
CC1(c2cccc(Br)c2)CCSC(N)=N1.Cl (stereo not shown) [Compound 339] | 217 to 218 °C | – | < 100
CCOC(=O)/C=C/c1cccc(C2(C)CCSC(N)=N2)c1 (stereo not shown) [Compound 417] | 137 to 139 °C | 5 | –
CC1(c2cc(F)cc(NC(=O)c3ccc(Cl)cn3)c2)CCSC(N)=N1 (stereo not shown) [Compound 99] | 221 to 224 °C | – | < 100
CCC1(c2cccc(NC(=O)c3ccc(Cl)cn3)c2)CCSC(N)=N1 (stereo not shown) [Compound 380] | 181 to 182 °C | – | < 100
Cc1cc(C(=O)Nc2cccc(C3(C)CCSC(N)=N3)c2)n(C)n1 (stereo not shown) [Compound 130] | 128 to 131 °C | – | < 100
CC1(c2cccc(C(=O)Nc3ccc(Cl)cn3)c2)CCSC(N)=N1.Cl.Cl (stereo not shown) [Compound 220] | 191 to 193 °C | 1.5 | –
COC(=O)c1cc(C(=O)Nc2cccc(C3(C)CCSC(N)=N3)c2)nn1C (stereo not shown) [Compound 687] | 164 to 167 °C | – | < 100
COc1ccc2cc(C3(C)CCSC(N)=N3)ccc2c1 (stereo not shown) [Compound 871] | 212 to 213 °C | – | < 100
CC(=O)Nc1cc(Cl)cnc1C(=O)Nc1cccc(C2(C)CCSC(N)=N2)c1 (stereo not shown) [Compound 511] | 211 to 214 °C | – | < 100
CC1(c2cccc(/C=C/c3ccc(Cl)cc3)c2)CCSC(N)=N1.Cl (stereo not shown) [Compound 161] | 247 to 251 °C | 7.7 | –
CC1(c2cccc(NC(=O)c3ncc(C(F)(F)F)cc3F)c2)CCSC(N)=N1 (stereo not shown) [Compound 643] | 155 to 157 °C | – | < 100
CC1(c2ccccc2)CC(c2ccccc2)SC(N)=N1 (stereo not shown) [Compound 835] | 139 to 140 °C | – | < 100
CC1(c2cc(Br)cc(NC(=O)c3ccno3)c2)CCSC(N)=N1.Cl (stereo not shown) [Compound 1132] | 175 to 180 °C (dec.) | 2.56 | –
CC1(c2ccc3ccccc3c2)CCNC(N)=N1.O=S(=O)(O)O (stereo not shown) [Compound 125] | > 300 °C | – | < 100
COc1cnc(C(=O)Nc2cccc(C3(C)CCSC(N)=N3)c2)cn1 (stereo not shown) [Compound 243] | 182 to 184 °C | – | < 100
CC1(c2ccc(F)cc2)CCCSC(N)=N1.Cl (stereo not shown) [Compound 129] | 219 to 222 °C | – | < 100
CC1(c2cccc(NC(=O)c3ccc(C(N)=O)cn3)c2)CCSC(N)=N1.Cl (stereo not shown) [Compound 73] | 266 to 269 °C | 0.435 | –
CC1(c2cc(C#N)cc(NC(=O)c3ccc(Cl)cn3)c2)CCSC(N)=N1 (stereo not shown) [Compound 255] | 238 to 239 °C | – | < 100

Compound | melting point | IC50 [1, 2] [µM] | IC50 [1, 3] [µM]
CC1(c2ccc(Oc3ccccc3)cc2)CCSC(N)=N1 (stereo not shown) [Compound 1055] | 169 to 170 °C | – | < 100
COCc1cc(NC(=O)c2ccc(Br)cc2)cc(C2(C)CCSC(N)=N2)c1.Cl (stereo not shown) [Compound 1197] | 250 to 255 °C (dec.) | 0.912 | –
CC1(c2ccc(F)cc2)CCSC(N)=N1 (stereo not shown) [Compound 549] | 100 to 101 °C | – | < 100
CC1(c2cccc(OCCCc3ccc(Cl)cc3)c2)CCSC(N)=N1 (stereo not shown) [Compound 1207] | 106 to 108 °C | 4 | –
CC1(c2cccc(/C=C\CCc3ccc(Cl)cc3)c2)CCSC(N)=N1.Cl (stereo not shown) [Compound 1261] | 179 to 180 °C | – | < 100
Cc1ccc2cc(C3(C)CCSC(N)=N3)ccc2c1 (stereo not shown) [Compound 758] | 156 to 157 °C | – | < 100
COc1ccc(CCCOc2cccc(C3(C)CCSC(N)=N3)c2)cc1.Cl (stereo not shown) [Compound 936] | 169 to 170 °C | – | < 100
COc1ccc(C2(C)CCSC(N)=N2)cc1F (stereo not shown) [Compound 551] | 139 to 141 °C | – | < 100
CC1(c2ccc3ccccc3c2)CCSC(N)=N1.Cl (stereo not shown) [Compound 3] | 285 °C (dec.) | – | < 100
Cc1ccc(C2(C)CCSC(N)=N2)cc1 (stereo not shown) [Compound 85] | 147 to 148 °C | – | < 100
CC1(c2ccc(F)c(C(=O)Nc3cc(Cl)ccn3)c2)CCSC(N)=N1 (stereo not shown) [Compound 1068] | 132 to 134 °C | – | –
CC1(c2ccc(OCc3ccccc3)cc2)CCSC(N)=N1 (stereo not shown) [Compound 892] | 251 °C (dec.) | – | –
CN(C)C(=O)c1ccc(C2(C)CCSC(N)=N2)cc1 (stereo not shown) [Compound 644] | 201 to 203 °C | – | –
CC1(c2cccc3c2CC(=O)N3)CCSC(N)=N1.Cl (stereo not shown) | 272 to 285 °C (dec.) | – | –
CC(C)c1ccc2cc(C3(C)CCSC(N)=N3)ccc2c1 (stereo not shown) [Compound 811] | 138 to 139 °C | – | –
CO/N=C(\C)c1cccc(C2(C)CCSC(N)=N2)c1.Cl (stereo not shown) | 192 to 194 °C | – | –
CC1(c2ccccc2)CN=C(N)SC1.Cl (stereo not shown) | 235 to 240 °C | – | –
COC(=O)c1ccc(C2(C)CCSC(N)=N2)cc1 (stereo not shown) [Compound 1119] | 153 to 157 °C | – | –
COc1ccc(C2(C)CCCSC(N)=N2)cc1 (stereo not shown) [Compound 1008] | 125 to 126 °C | – | –
NC1=NC2(CCS1)CCc1ccccc12 (stereo not shown) [Compound 525] | 105 to 106 °C | – | –
CC1(c2ccccc2)CC(c2ccccc2)SC(N)=N1.Cl (stereo not shown) | 161 to 165 °C | – | –
CC1(c2cc(NC(=O)c3ncc(Cl)cc3Cl)ccc2F)CCSC(N)=N1 (stereo not shown) [Compound 827] | 134 to 137 °C | – | –
COc1ccc(C2(C)CCSC(NC(=N)N)=N2)cc1F.Cl (stereo not shown) | 167 to 174 °C | – | –
CC1(c2cccc(NC(=O)c3ncc(Cl)cc3O)c2)CCSC(N)=N1 (stereo not shown) [Compound 717] | 157 to 162 °C | – | –
CC1(c2cc(F)cc(NC(=O)c3cnccn3)c2)CCSC(N)=N1 (stereo not shown) [Compound 244] | 222 to 224 °C | – | –
CN(C)Cc1ccc(C(=O)Nc2cccc(C3(C)CCSC(N)=N3)c2)nc1 (stereo not shown) [Compound 653] | 193 to 194 °C | – | –
CC1(c2ccc3c(c2)OCCO3)CCNC(N)=N1.Cl (stereo not shown) | 198 to 201 °C | – | –

From US8546380B2, “Aminodihydrothiazine derivatives” (Shionogi & Co., Ltd., priority 2005, dated 2013)
